Reference: the OligoGym collection
HELM strings list units from the 5' end as sugar, base in round brackets, then linkage (d deoxyribose, r ribose, m 2'-O-methyl, p phosphodiester). Strings are as the collection lists them; they lack the last nucleoside at the 3' end of the tested compound. [moe] = 2'-O-(2-methoxyethyl) (MOE); [sp] = phosphorothioate linkage; [m5C] = 5-methylcytosine

What follows are substances tested against APP (assay: mouse, dose not given). Conditions: ASO.

Substance | 3 h FOB score
RNA1{[moe](A)[sp].[moe]([m5C])p.[moe](T)p.[moe](G)p.[moe](A)[sp].d(T)[sp].d(T)[sp].d(A)[sp].d(T)[sp].d([m5C])[sp].d(A)[sp].d(A)[sp].d(A)[sp].d(T)[sp].d(T)[sp].[moe]([m5C])p.[moe]([m5C])p.[moe](G)[sp].[moe](G)}$$$$ (last 3' nucleoside missing) | 0.25 score 0-7
RNA1{[moe](A)[sp].[moe]([m5C])p.[moe](T)p.[moe](T)p.[moe](A)[sp].d([m5C])[sp].d(A)[sp].d(A)[sp].d(A)[sp].d([m5C])[sp].d(T)[sp].d([m5C])[sp].d(A)[sp].d([m5C])[sp].d([m5C])[sp].[moe](A)p.[moe](A)p.[moe]([m5C])[sp].[moe](T)}$$$$ (last 3' nucleoside missing) | 1 score 0-7
RNA1{[moe](A)[sp].[moe]([m5C])p.[moe](T)p.[moe](T)p.[moe]([m5C])[sp].d(T)[sp].d(A)[sp].d([m5C])[sp].d(T)[sp].d(A)[sp].d([m5C])[sp].d(T)[sp].d(T)[sp].d(T)[sp].d(G)[sp].[moe](T)p.[moe]([m5C])p.[moe](T)[sp].[moe](T)}$$$$ (last 3' nucleoside missing) | 1.5 score 0-7
RNA1{[moe](A)[sp].[moe]([m5C])p.[moe](T)p.[moe]([m5C])p.[moe](A)[sp].d([m5C])[sp].d(A)[sp].d([m5C])[sp].d(A)[sp].d([m5C])[sp].d(T)[sp].d(G)[sp].d(T)[sp].d(T)[sp].d(T)[sp].[moe]([m5C])p.[moe](A)p.[moe](A)[sp].[moe](G)}$$$$ (last 3' nucleoside missing) | 2.67 score 0-7
RNA1{[moe](A)[sp].[moe]([m5C])p.[moe](T)p.[moe]([m5C])p.[moe](G)[sp].d(A)[sp].d(A)[sp].d([m5C])[sp].d([m5C])[sp].d(A)[sp].d([m5C])[sp].d([m5C])[sp].d(T)[sp].d([m5C])[sp].d(T)[sp].[moe](T)p.[moe]([m5C])p.[moe]([m5C])[sp].[moe](A)}$$$$ (last 3' nucleoside missing) | 0 score 0-7
RNA1{[moe](G)[sp].[moe](A)[sp].[moe](T)p.[moe]([m5C])p.[moe](T)[sp].d(G)[sp].d(A)[sp].d(A)[sp].d(T)[sp].d([m5C])[sp].d([m5C])[sp].d([m5C])[sp].d(A)[sp].d([m5C])[sp].d(T)[sp].[moe](T)p.[moe]([m5C])p.[moe]([m5C])[sp].[moe]([m5C])}$$$$ (last 3' nucleoside missing) | 0.25 score 0-7
RNA1{[moe](G)[sp].[moe](A)p.[moe](A)p.[moe](G)p.[moe]([m5C])[sp].d(A)[sp].d(T)[sp].d(A)[sp].d(T)[sp].d(T)[sp].d([m5C])[sp].d([m5C])[sp].d(T)[sp].d([m5C])[sp].d(T)[sp].[moe](A)p.[moe](T)p.[moe]([m5C])[sp].[moe]([m5C])}$$$$ (last 3' nucleoside missing) | 0.67 score 0-7
RNA1{[moe](G)[sp].[moe](A)p.[moe](A)p.[moe](G)p.[moe]([m5C])[sp].d(T)[sp].d(T)[sp].d(A)[sp].d([m5C])[sp].d(A)[sp].d(T)[sp].d([m5C])[sp].d(A)[sp].d(T)[sp].d(T)[sp].[moe](T)p.[moe](T)p.[moe]([m5C])[sp].[moe](T)}$$$$ (last 3' nucleoside missing) | 0 score 0-7
RNA1{[moe](G)[sp].[moe](A)p.[moe](A)p.[moe]([m5C])p.[moe](T)[sp].d([m5C])[sp].d(G)[sp].d(A)[sp].d(A)[sp].d([m5C])[sp].d([m5C])[sp].d(A)[sp].d([m5C])[sp].d([m5C])[sp].d(T)[sp].[moe]([m5C])p.[moe](T)p.[moe](T)[sp].[moe]([m5C])}$$$$ (last 3' nucleoside missing) | 1 score 0-7
RNA1{[moe](G)[sp].[moe](A)p.[moe](G)p.[moe](A)p.[moe](T)[sp].d(A)[sp].d([m5C])[sp].d(T)[sp].d(T)[sp].d(G)[sp].d(T)[sp].d([m5C])[sp].d(A)[sp].d(A)[sp].d([m5C])[sp].[moe](G)p.[moe](G)p.[moe]([m5C])[sp].[moe](A)}$$$$ (last 3' nucleoside missing) | 1.67 score 0-7
RNA1{[moe](G)[sp].[moe](A)p.[moe](G)p.[moe](T)p.[moe](A)[sp].d(A)[sp].d(A)[sp].d(T)[sp].d([m5C])[sp].d(A)[sp].d(T)[sp].d(A)[sp].d(A)[sp].d(A)[sp].d(A)[sp].[moe]([m5C])p.[moe](G)p.[moe](G)[sp].[moe](G)}$$$$ (last 3' nucleoside missing) | 2 score 0-7
RNA1{[moe](G)[sp].[moe](A)p.[moe](T)p.[moe]([m5C])p.[moe](T)[sp].d(G)[sp].d(A)[sp].d(A)[sp].d(T)[sp].d([m5C])[sp].d([m5C])[sp].d([m5C])[sp].d(A)[sp].d([m5C])[sp].d(T)[sp].[moe](T)p.[moe]([m5C])p.[moe]([m5C])[sp].[moe]([m5C])}$$$$ (last 3' nucleoside missing) | 0 score 0-7
RNA1{[moe](G)[sp].[moe](A)p.[moe](T)p.[moe]([m5C])p.[moe](T)p.[moe](G)p.d(A)[sp].d(A)[sp].d(T)[sp].d([m5C])[sp].d([m5C])[sp].d([m5C])[sp].d(A)[sp].d([m5C])[sp].d(T)[sp].d(T)[sp].[moe]([m5C])p.[moe]([m5C])[sp].[moe]([m5C])}$$$$ (last 3' nucleoside missing) | 0 score 0-7
RNA1{[moe](G)[sp].[moe](A)p.[moe]([m5C])p.[moe](A)p.[moe](T)[sp].d([m5C])[sp].d(A)[sp].d(T)[sp].d(T)[sp].d(T)[sp].d(A)[sp].d(A)[sp].d(T)[sp].d(T)[sp].d(T)[sp].[moe](G)p.[moe](T)p.[moe](G)[sp].[moe]([m5C])}$$$$ (last 3' nucleoside missing) | 0 score 0-7
RNA1{[moe](G)[sp].[moe](A)p.[moe]([m5C])p.[moe](A)p.[moe]([m5C])[sp].d(T)[sp].d(T)[sp].d(T)[sp].d(T)[sp].d(A)[sp].d(T)[sp].d([m5C])[sp].d(T)[sp].d(T)[sp].d(G)[sp].[moe]([m5C])p.[moe](A)p.[moe]([m5C])[sp].[moe](T)}$$$$ (last 3' nucleoside missing) | 2.33 score 0-7
RNA1{[moe](G)[sp].[moe](G)p.[moe](A)p.[moe](A)p.[moe]([m5C])[sp].d(T)[sp].d([m5C])[sp].d(G)[sp].d(A)[sp].d(A)[sp].d([m5C])[sp].d([m5C])[sp].d(A)[sp].d([m5C])[sp].d([m5C])[sp].[moe](T)p.[moe]([m5C])p.[moe](T)[sp].[moe](T)}$$$$ (last 3' nucleoside missing) | 2.5 score 0-7
RNA1{[moe](G)[sp].[moe](G)p.[moe](T)p.[moe](T)p.[moe](T)[sp].d(A)[sp].d([m5C])[sp].d([m5C])[sp].d(T)[sp].d(T)[sp].d(T)[sp].d(A)[sp].d(A)[sp].d([m5C])[sp].d(A)[sp].[moe](T)p.[moe](T)p.[moe]([m5C])[sp].[moe]([m5C])}$$$$ (last 3' nucleoside missing) | 0.25 score 0-7
RNA1{[moe](G)[sp].[moe](G)p.[moe]([m5C])p.[moe](A)p.[moe](T)[sp].d([m5C])[sp].d(A)[sp].d([m5C])[sp].d(T)[sp].d(T)[sp].d(A)[sp].d([m5C])[sp].d(A)[sp].d(A)[sp].d(A)[sp].[moe]([m5C])p.[moe](T)p.[moe]([m5C])[sp].[moe](A)}$$$$ (last 3' nucleoside missing) | 0.375 score 0-7
RNA1{[moe](G)[sp].[moe](G)p.[moe]([m5C])p.[moe](A)p.[moe](T)[sp].d([m5C])[sp].d(A)[sp].d([m5C])[sp].d(T)[sp].d(T)[sp].d(A)[sp].d([m5C])[sp].d(A)[sp].d(A)[sp].d(A)[sp].[moe]([m5C])p.[moe](T)p.[moe]([m5C])p.[moe](A)}$$$$ (last 3' nucleoside missing) | 0 score 0-7
RNA1{[moe](G)[sp].[moe](G)p.[moe]([m5C])p.[moe](A)p.[moe](T)p.[moe]([m5C])[sp].d(A)[sp].d([m5C])[sp].d(T)[sp].d(T)[sp].d(A)[sp].d([m5C])[sp].d(A)[sp].d(A)[sp].d(A)[sp].d([m5C])[sp].[moe](T)p.[moe]([m5C])[sp].[moe](A)}$$$$ (last 3' nucleoside missing) | 0 score 0-7
RNA1{[moe](G)[sp].[moe](G)p.[moe]([m5C])p.[moe](A)p.[moe](T)p.[moe]([m5C])p.d(A)[sp].d([m5C])[sp].d(T)[sp].d(T)[sp].d(A)[sp].d([m5C])[sp].d(A)[sp].d(A)[sp].d(A)[sp].d([m5C])[sp].[moe](T)p.[moe]([m5C])[sp].[moe](A)}$$$$ (last 3' nucleoside missing) | 0 score 0-7
RNA1{[moe](G)[sp].[moe](T)p.[moe](A)p.[moe](G)p.[moe](G)[sp].d(A)[sp].d(A)[sp].d([m5C])[sp].d(T)[sp].d([m5C])[sp].d(G)[sp].d(A)[sp].d(A)[sp].d([m5C])[sp].d([m5C])[sp].[moe](A)p.[moe]([m5C])p.[moe]([m5C])[sp].[moe](T)}$$$$ (last 3' nucleoside missing) | 2 score 0-7
RNA1{[moe](G)[sp].[moe](T)p.[moe](A)p.[moe](T)p.[moe]([m5C])[sp].d([m5C])[sp].d(T)[sp].d([m5C])[sp].d(T)[sp].d(T)[sp].d(A)[sp].d(A)[sp].d(T)[sp].d(T)[sp].d([m5C])[sp].[moe]([m5C])p.[moe](T)p.[moe](A)[sp].[moe](T)}$$$$ (last 3' nucleoside missing) | 0 score 0-7
RNA1{[moe](G)[sp].[moe](T)p.[moe](A)p.[moe]([m5C])p.[moe](A)[sp].d(T)[sp].d(A)[sp].d(T)[sp].d(T)[sp].d([m5C])[sp].d(A)[sp].d(T)[sp].d(T)[sp].d([m5C])[sp].d(A)[sp].[moe](A)p.[moe](T)p.[moe]([m5C])[sp].[moe](T)}$$$$ (last 3' nucleoside missing) | 0 score 0-7
RNA1{[moe](G)[sp].[moe](T)p.[moe](A)p.[moe]([m5C])p.[moe](T)[sp].d(G)[sp].d(T)[sp].d(T)[sp].d(T)[sp].d([m5C])[sp].d(T)[sp].d(T)[sp].d([m5C])[sp].d(T)[sp].d(T)[sp].[moe]([m5C])p.[moe](A)p.[moe](G)[sp].[moe]([m5C])}$$$$ (last 3' nucleoside missing) | 2 score 0-7
